{"source": "paper PMC7684764", "about": "(Journal of medicinal chemistry, 2020)", "key": {"[1]": {"test_system": "Salmonella typhimurium strain (with modified TA100)", "conditions": "with liver S9 fraction activation"}, "[2]": {"target": "T1, APN (CD13, microsomal aminopeptidase) (Sus scrofa, UniProt P15145)", "T1 sequence (P15145 1-963)": "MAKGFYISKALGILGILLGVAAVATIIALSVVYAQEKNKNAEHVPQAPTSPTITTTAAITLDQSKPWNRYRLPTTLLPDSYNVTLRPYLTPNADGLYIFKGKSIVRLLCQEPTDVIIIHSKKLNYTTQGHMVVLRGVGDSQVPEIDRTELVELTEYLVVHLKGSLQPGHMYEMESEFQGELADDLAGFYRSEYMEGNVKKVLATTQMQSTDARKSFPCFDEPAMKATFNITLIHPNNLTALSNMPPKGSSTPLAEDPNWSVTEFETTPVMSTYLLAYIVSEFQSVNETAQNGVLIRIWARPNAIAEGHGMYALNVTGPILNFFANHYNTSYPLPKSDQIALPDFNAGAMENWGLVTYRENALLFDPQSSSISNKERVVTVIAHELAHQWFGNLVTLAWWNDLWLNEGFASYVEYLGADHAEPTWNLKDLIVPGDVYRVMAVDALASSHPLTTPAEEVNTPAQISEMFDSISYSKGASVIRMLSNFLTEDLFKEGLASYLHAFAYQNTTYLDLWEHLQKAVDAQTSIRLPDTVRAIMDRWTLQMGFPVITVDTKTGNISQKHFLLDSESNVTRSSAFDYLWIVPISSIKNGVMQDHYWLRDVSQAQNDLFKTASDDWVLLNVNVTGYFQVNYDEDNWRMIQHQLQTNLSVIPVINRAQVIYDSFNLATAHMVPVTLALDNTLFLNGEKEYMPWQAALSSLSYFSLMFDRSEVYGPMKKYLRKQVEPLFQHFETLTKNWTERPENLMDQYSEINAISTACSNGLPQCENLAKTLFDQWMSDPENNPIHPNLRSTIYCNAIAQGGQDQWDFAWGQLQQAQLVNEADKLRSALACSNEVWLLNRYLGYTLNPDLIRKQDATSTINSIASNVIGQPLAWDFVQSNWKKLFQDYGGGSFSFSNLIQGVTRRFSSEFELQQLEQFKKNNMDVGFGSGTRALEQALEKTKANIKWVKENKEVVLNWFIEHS", "assay": "CD13 inhibition assay", "assay_type": "biochemical, porcine", "conditions": "13a 50 μM and 10 μM, Figure S4"}, "[3]": {"test_system": "MV4–11 cells", "assay": "Release profile by western blot after drug wash-out", "assay_type": "cell-based", "conditions": "MV4–11, 3 h treatment, up to 6 h, Figure 3B"}, "[4]": {"test_system": "MV4–11 cells", "assay": "Western blot analysis", "assay_type": "cell-based", "conditions": "for increase in Hsp70 levels: 24 h, Figures 5A and C (MV4–11 and RS4;11); for FLT3 and STAT5 levels / pro-caspase3 cleavage: wt-p53 FLT3-ITD MV4–11, 24 h, Figure 5A"}, "[5]": {"test_system": "RS4;11 cells", "assay": "Western blot analysis", "assay_type": "cell-based", "conditions": "wt-p53 wt-FLT3 RS4;11, 24 h; 13a 200 nM, panobinostat 100 nM, vorinostat 5000 nM"}, "[6]": {"test_system": "HL60 cells", "assay": "Western blot analysis", "assay_type": "cell-based", "conditions": "p53-null wt-FLT3 HL60, 24 h, Figure 5D"}, "[7]": {"test_system": "SR cell line", "assay": "Western blot analysis", "assay_type": "cell-based", "conditions": "wt-p53 SR, 24 h, Figure S7"}, "[8]": {"test_system": "MV4–11 cells", "assay": "Combination index", "assay_type": "cell-based", "conditions": "MV4–11, 48 h, lower concentrations, Figure S8"}, "[9]": {"test_system": "NCI60 tumor cell lines", "assay": "NCI60 tumor cell lines screen, whole panel", "assay_type": "cell-based", "conditions": "concentrations under 10 μM"}, "[10]": {"test_system": "MV4–11 cells", "assay": "EC50 analysis", "assay_type": "cell-based", "conditions": "MV4–11, 50 μM"}, "[11]": {"target": "HDAC1 (Homo sapiens, UniProt Q13547)", "sequence (Q13547 whole entry)": "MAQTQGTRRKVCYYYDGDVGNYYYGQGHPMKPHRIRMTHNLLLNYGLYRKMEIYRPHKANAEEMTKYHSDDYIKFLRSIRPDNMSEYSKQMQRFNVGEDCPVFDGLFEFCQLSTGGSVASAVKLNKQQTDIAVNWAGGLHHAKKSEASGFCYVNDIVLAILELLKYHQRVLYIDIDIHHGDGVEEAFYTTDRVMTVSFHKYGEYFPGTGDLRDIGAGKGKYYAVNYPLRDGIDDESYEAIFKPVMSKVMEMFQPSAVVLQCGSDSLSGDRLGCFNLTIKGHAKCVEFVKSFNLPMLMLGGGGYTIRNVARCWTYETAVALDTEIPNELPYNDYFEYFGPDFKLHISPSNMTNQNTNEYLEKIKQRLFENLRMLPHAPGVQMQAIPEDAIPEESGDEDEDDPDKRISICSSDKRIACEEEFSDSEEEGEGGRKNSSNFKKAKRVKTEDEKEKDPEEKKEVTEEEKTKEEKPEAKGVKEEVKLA", "assay": "In vitro HDACs inhibition fluorescence assay", "assay_type": "biochemical", "conditions": "IC50 curves after pre-incubation of 10, 30, 60 and 90 min, Figure 3A"}, "[12]": {"target": "HDAC3 (Homo sapiens, UniProt O15379)", "sequence (O15379 whole entry)": "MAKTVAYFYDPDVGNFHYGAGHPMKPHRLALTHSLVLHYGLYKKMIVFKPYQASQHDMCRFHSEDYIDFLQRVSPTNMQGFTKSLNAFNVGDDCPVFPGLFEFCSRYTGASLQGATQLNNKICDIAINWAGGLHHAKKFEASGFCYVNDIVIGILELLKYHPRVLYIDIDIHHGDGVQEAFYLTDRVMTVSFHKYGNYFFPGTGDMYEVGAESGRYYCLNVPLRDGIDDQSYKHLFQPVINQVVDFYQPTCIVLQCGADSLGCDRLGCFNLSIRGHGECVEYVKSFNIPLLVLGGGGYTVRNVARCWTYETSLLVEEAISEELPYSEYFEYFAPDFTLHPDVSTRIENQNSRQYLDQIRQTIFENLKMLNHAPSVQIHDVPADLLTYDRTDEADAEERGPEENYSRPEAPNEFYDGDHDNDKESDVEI", "sequence (Q9Y618 395-489 partner limits assumed)": "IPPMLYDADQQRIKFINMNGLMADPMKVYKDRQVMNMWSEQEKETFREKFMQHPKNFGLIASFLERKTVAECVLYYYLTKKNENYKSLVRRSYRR", "assay": "In vitro HDACs inhibition fluorescence assay", "assay_type": "biochemical"}}}
{"smiles": "Nc1ccc2cc3ccccc3cc2c1", "note": "[2-aminoanthracene]", "values": [{"measurement": "mutagenicity, Mini-Ames", "setting": "[1]", "result": "Ames positive"}]}
{"smiles": "CCCNNC(=O)/C=C/c1ccc(CNCCc2c(C)[nH]c3ccccc23)cc1.O=C(O)C(F)(F)F", "note": "[Compound 13a, (E)-2-(2-methyl-1H-indol-3-yl)-N-(4-(3-oxo-3-(2-propylhydrazinyl)prop-1-en-1-yl)benzyl)ethanaminium 2,2,2-trifluoroacetate]", "values": [{"measurement": "inhibition of APN", "setting": "[2]", "result": "does not show any inhibition"}, {"measurement": "acetylation of tubulin", "setting": "[3]", "result": "does not increase the acetylation of tubulin"}, {"measurement": "histone acetylation after removal of drug", "setting": "[3]", "result": "does not decrease within 6 h"}, {"measurement": "increase in Hsp70 levels", "setting": "[4]", "result": "not observed"}, {"measurement": "FLT3 and STAT5 levels", "setting": "[4]", "result": "down-regulate"}, {"measurement": "pro-caspase3 cleavage", "setting": "[4]", "result": "observed"}, {"measurement": "cleavage of pro-caspase3", "setting": "[5]", "result": "only observed at high dose"}, {"measurement": "pro-caspase3 cleavage", "setting": "[6]", "result": "not cleaved"}, {"measurement": "pro-caspase3 cleavage", "setting": "[7]", "result": "does not cleave"}, {"measurement": "interaction of 13a with 17-AAG in anti-proliferation activity", "setting": "[8]", "result": "antagonized"}, {"measurement": "number of the 60 cell lines with lethality under 10 μM", "setting": "[9]", "result": 10}, {"measurement": "mutagenicity, Mini-Ames", "setting": "[1]", "result": "not mutagenic"}]}
{"smiles": "Cc1[nH]c2ccccc2c1CCNCc1ccc(/C=C/C(=O)NN(C)C)cc1.O=C(O)C(F)(F)F", "note": "[Compound 26a, (E)-N-(4-(3-(2,2-dimethylhydrazinyl)-3-oxoprop-1-en-1-yl)benzyl)-2-(2-methyl-1H-indol-3-yl)ethanaminium 2,2,2-trifluoroacetate]", "values": [{"measurement": "effect on cell proliferation at 50 μM", "setting": "[10]", "result": "do not affect cell proliferation"}]}
{"smiles": "Cc1[nH]c2ccccc2c1CCNCc1ccc(/C=C/C(=O)NN2CCCC2)cc1.O=C(O)C(F)(F)F", "note": "[Compound 26b, (E)-2-(2-methyl-1H-indol-3-yl)-N-(4-(3-oxo-3-(pyrrolidin-1-ylamino)prop-1-en-1-yl)benzyl)ethanaminium 2,2,2-trifluoroacetate]", "values": [{"measurement": "effect on cell proliferation at 50 μM", "setting": "[10]", "result": "do not affect cell proliferation"}]}
{"smiles": "Cc1[nH]c2ccccc2c1CCNCc1ccc(/C=C/C(=O)NN2CCCCC2)cc1.O=C(O)C(F)(F)F", "note": "[Compound 26c, (E)-2-(2-methyl-1H-indol-3-yl)-N-(4-(3-oxo-3-(piperidin-1-ylamino)prop-1-en-1-yl)benzyl)ethanaminium 2,2,2-trifluoroacetate]", "values": [{"measurement": "effect on cell proliferation at 50 μM", "setting": "[10]", "result": "do not affect cell proliferation"}]}
{"smiles": "Cc1[nH]c2ccccc2c1CCNCc1ccc(/C=C/C(=O)NN(CCCO)CCCO)cc1.O=C(O)C(F)(F)F", "note": "[Compound 30, (E)-N-(4-(3-(2,2-bis(3-hydroxypropyl)hydrazinyl)-3-oxoprop-1-en-1-yl)benzyl)-2-(2-methyl-1H-indol-3-yl)ethanaminium 2,2,2-trifluoroacetate]", "values": [{"measurement": "effect on cell proliferation at 50 μM", "setting": "[10]", "result": "do not affect cell proliferation"}]}
{"smiles": "Nc1ccccc1NC(=O)c1ccc(CNC(=O)OCc2cccnc2)cc1", "note": "[Entinostat, entinostat]", "values": [{"measurement": "pro-caspase3 cleavage", "setting": "[4]", "result": "observed"}]}
{"smiles": "CCCNNC(=O)c1ccc(CNC(=O)/C=C/c2ccccc2)cc1", "note": "[LP411]", "values": [{"measurement": "FLT3 and STAT5 levels", "setting": "[4]", "result": "down-regulate"}, {"measurement": "pro-caspase3 cleavage", "setting": "[4]", "result": "observed"}]}
{"smiles": "Cc1[nH]c2ccccc2c1CCNCc1ccc(/C=C/C(=O)NO)cc1", "note": "[Panobinostat]", "values": [{"measurement": "on-kinetics, HDAC1", "setting": "[11]", "result": "fast-on kinetics"}, {"measurement": "on-kinetics, HDAC3", "setting": "[12]", "result": "fast-on kinetics"}, {"measurement": "acetylation of tubulin", "setting": "[3]", "result": "completely disappears after 30 min"}, {"measurement": "histone acetylation after removal of drug", "setting": "[3]", "result": "begins to decrease after 1 h"}, {"measurement": "increase in Hsp70 levels", "setting": "[4]", "result": "observed"}, {"measurement": "pro-caspase3 cleavage", "setting": "[4]", "result": "observed"}, {"measurement": "cleavage of pro-caspase3", "setting": "[5]", "result": "observed"}, {"measurement": "number of the 60 cell lines with lethality under 10 μM", "setting": "[9]", "result": 18}, {"measurement": "mutagenicity, Mini-Ames", "setting": "[1]", "result": "Ames positive"}]}
